Measurements: ChEMBL document CHEMBL5727499, “Derivatives and methods of treating hepatitis B infections” (2020)
Entries after “also recorded” stand apart in the source; their conditions may differ.

assay: HBV Replication Inhibition Assay: HBV replication inhibition by the compounds of this invention could be determined in cells infected or transfected with HBV, or cells with stably integrated HBV, such as HepG2.2.15 cells (Sells et al. 1987). In this example, HepG2.2.15 cells were maintained in cell culture medium containing 10% fetal bovine serum (FBS), Geneticin, L-glutamine, penicillin and streptomycin. HepG2.2.15 cells could be seeded in 96-well plates at a density of 40,000 cells/well and be treated with serially diluted compounds at a final DMSO concentration of 0.5% either alone or in combination by adding drugs in a checker box format. Cells were incubated with compounds for three days, after which medium was removed and fresh medium containing compounds was added to cells and incubated for another three days. At day 6, supernatant was removed and treated with DNase at 37° C. for 60 minutes, followed by enzyme inactivation at 75° C. for 15 minutes. Encapsidated HBV DNA was released from the virions and covalently linked HBV polymerase by incubating in lysis buffer (Affymetrix QS0010) containing 2.5 μg proteinase K at 50° C. for 40 minutes. HBV DNA was denatured by addition of 0.2 M NaOH and detected using a branched DNA (BDNA) QuantiGene assay kit according to manufacturer recommendation (Affymetrix). HBV DNA levels could also be quantified using qPCR, based on amplification of encapsidated HBV DNA extraction with QuickExtraction Solution (Epicentre Biotechnologies) and amplification of HBV DNA using HBV specific PCR probes that can hybridize to HBV DNA and a fluorescently labeled probe for quantitation. In addition, cell viability of HepG2.2.15 cells incubated with test compounds alone or in combination was determined by using CellTitre-Glo reagent according to the manufacturer protocol (Promega). The mean background signal from wells containing only culture medium was subtracted from all other samples, and percent inhibition at each compound concentration was calculated by normalizing to signals from HepG2.2.15 cells treated with 0.5% DMSO using equation E1.% inhibition=(DMSOave−Xi)/DMSOave×100% E1:where DMSOave is the mean signal calculated from the wells that were treated with DMSO control (0% inhibition control) and Xi is the signal measured from the individual wells. EC50 values, effective concentrations that achieved 50% inhibitory effect, were determined by non-linear fitting using Graphpad Prism software (San Diego, Calif.) and equation E2Y=Y min+(Y max−Y min)/(1+10(Log EC50−X)×HillSlope) E2:where Y represents percent inhibition values and X represents the logarithm of compound concentrations.; conditions: not given

Compound | EC50
CC1Cc2[nH]nc(C3CCCO3)c2CN1C(=O)Nc1ccc(F)c(C#N)c1 (stereo unspecified) | in the range around 300 nM
CC1Cc2[nH]nc(C3CCCC3)c2CN1C(=O)Nc1ccc(F)c(C#N)c1 (stereo unspecified) | in the range around 55 nM
CC1Cc2[nH]nc(C3CCC3)c2CN1C(=O)Nc1cccc(C#N)c1F (stereo unspecified) | in the range around 300 nM
CC1Cc2[nH]nc(C3CCCC3)c2CN1C(=O)Nc1cccc(Cl)c1 (stereo unspecified) | in the range around 55 nM
CC1Cc2[nH]nc(C3CCCO3)c2CN1C(=O)Nc1ccc(F)c(Cl)c1 (stereo unspecified) | in the range around 55 nM
Cc1cc(NC(=O)N2Cc3c(C4CCCC4)n[nH]c3CC2C)ccc1F (stereo unspecified) | in the range around 55 nM
CC1Cc2[nH]nc(C3CCCC3)c2CN1C(=O)Nc1ccc(F)c(Br)c1 (stereo unspecified) | in the range around 55 nM
CC1Cc2[nH]nc(C3CCCO3)c2CN1C(=O)Nc1ccc(F)c(Br)c1 (stereo unspecified) | in the range around 55 nM; also recorded: in the range around 300 nM
Cc1cccc(NC(=O)N2Cc3c(C4CCCC4)n[nH]c3CC2C)c1 (stereo unspecified) | in the range around 55 nM
CC1Cc2[nH]nc(C3CCCC3)c2CN1C(=O)Nc1ccc(F)c(Cl)c1 (stereo unspecified) | in the range around 55 nM
Cc1cc(NC(=O)N2Cc3c(C4CCCO4)n[nH]c3CC2C)ccc1F (stereo unspecified) | in the range around 55 nM; also recorded: in the range around 300 nM
CC1Cc2[nH]nc(C3CCCC3)c2CN1C(=O)Nc1cccc(Br)c1 (stereo unspecified) | in the range around 55 nM
CC1Cc2[nH]nc(C3CCCC3)c2CN1C(=O)Nc1ccnc(Br)c1F (stereo unspecified) | in the range around 55 nM
CC1Cc2[nH]nc(C3CCC3)c2CN1C(=O)Nc1ccnc(Br)c1F (stereo unspecified) | in the range around 300 nM

same assay, conditions: HepG2.2.15

Compound | EC50
O=C(Nc1cccc(Br)c1)N1CCc2[nH]nc(C34CCCC3C4)c2C1 (stereo unspecified) | in the range around 55 nM
N#Cc1cccc(NC(=O)N2CCc3[nH]nc(C45CCCC4C5)c3C2)c1F (stereo unspecified) | in the range around 55 nM
O=C(Nc1cccc(Cl)c1)N1CCc2[nH]nc(O)c2C1 | > 10000 nM
O=C(Nc1cccc(Br)c1)N1CCc2[nH]nc(C3CCC3)c2C1 | in the range around 55 nM
CC1Cc2[nH]nc(C3CCCO3)c2CN1C(=O)Nc1cccc(Cl)c1 (stereo unspecified) | in the range around 55 nM
O=C(Nc1ccnc(Cl)c1F)N1CCc2[nH]nc(C34CCCC3C4)c2C1 (stereo unspecified) | in the range around 55 nM
O=C(Nc1ccnc(Cl)c1F)N1CCc2[nH]nc(C3CCC3)c2C1 | in the range around 300 nM
O=C(Nc1ccc(F)c(Br)c1)N1CCc2[nH]nc(C34CCCC3C4)c2C1 (stereo unspecified) | in the range around 55 nM
O=C(Nc1ccc(F)c(Cl)c1)N1CCc2[nH]nc(C3CCC3)c2C1 | in the range around 55 nM
O=C(Nc1cccc(Cl)c1)N1CCc2[nH]nc(C3CCC(O)C3)c2C1 (stereo unspecified) | in the range around 300 nM
CC1Cc2[nH]nc(C3CCCO3)c2CN1C(=O)Nc1ccc(F)c(C#N)c1 (stereo unspecified) | in the range around 300 nM
O=C(Nc1cccc(Cl)c1)N1CCc2[nH]nc(C3CCCO3)c2C1 (stereo unspecified) | in the range around 55 nM
O=C(Nc1ccnc(Br)c1F)N1CCc2[nH]nc(C3CCC3)c2C1 | in the range around 300 nM
CC1Cc2[nH]nc(C3CCCC3)c2CN1C(=O)Nc1ccc(F)c(C#N)c1 (stereo unspecified) | in the range around 55 nM
CC1Cc2[nH]nc(C3CCC3)c2CN1C(=O)Nc1cccc(C#N)c1F (stereo unspecified) | in the range around 300 nM
CC(C)(C)c1n[nH]c2c1CN(C(=O)Nc1cccc(Cl)c1)CC2 | in the range around 300 nM
O=C(Nc1ccc(F)c(Cl)c1)N1CCc2[nH]nc(C34CCCC3C4)c2C1 (stereo unspecified) | in the range around 55 nM
O=C(Nc1cccc(Cl)c1)N1CCc2[nH]nc(C3=CCCCC3)c2C1 | in the range around 55 nM
Cc1cccc(NC(=O)N2CCc3[nH]nc(C4CCC4)c3C2)c1 | in the range around 300 nM
C=C(C)c1n[nH]c2c1CN(C(=O)Nc1cccc(C)c1)CC2 | in the range around 300 nM
CCC(F)(F)c1n[nH]c2c1CN(C(=O)Nc1cccc(Cl)c1)CC2 | in the range around 300 nM
CC1Cc2[nH]nc(C3CCCC3)c2CN1C(=O)Nc1cccc(Cl)c1 (stereo unspecified) | in the range around 55 nM
CC1(c2n[nH]c3c2CN(C(=O)Nc2cccc(Cl)c2)CC3)CC1 | in the range around 300 nM

Compound | EC50
CC(C)c1n[nH]c2c1CN(C(=O)Nc1cccc(Cl)c1)CC2 | in the range around 300 nM
O=C(Nc1ccc(F)c(F)c1)N1CCc2[nH]nc(C34CCCC3C4)c2C1 (stereo unspecified) | in the range around 300 nM
O=C(Nc1cccc(Br)c1F)N1CCc2[nH]nc(C3CCC3)c2C1 | in the range around 55 nM
CC1Cc2[nH]nc(C3CCCO3)c2CN1C(=O)Nc1ccnc(Br)c1F (stereo unspecified) | 750 nM
CC1Cc2[nH]nc(C3CCCO3)c2CN1C(=O)Nc1ccc(F)c(Cl)c1 (stereo unspecified) | in the range around 55 nM
O=C(Nc1cccc(Cl)c1)N1CCc2[nH]nc(C3CCCC3)c2C1 | in the range around 55 nM
Cc1cc(NC(=O)N2Cc3c(C4CCCC4)n[nH]c3CC2C)ccc1F (stereo unspecified) | in the range around 55 nM
C=C(C)c1n[nH]c2c1CN(C(=O)Nc1cccc(Cl)c1)CC2 | in the range around 55 nM
CC1Cc2[nH]nc(C3CCC3)c2CN1C(=O)Nc1cccc(Br)c1 (stereo unspecified) | in the range around 55 nM
O=C(Nc1ccc(F)c(F)c1)N1CCc2[nH]nc(C3CCC3)c2C1 | in the range around 300 nM
O=C(Nc1cccc(Cl)c1)N1CCc2[nH]nc(Br)c2C1 | > 10000 nM
CC(CO)c1n[nH]c2c1CN(C(=O)Nc1cccc(Cl)c1)CC2 (stereo unspecified) | > 10000 nM
CC1Cc2[nH]nc(C3CCCO3)c2CN1C(=O)Nc1cccc(Br)c1 (stereo unspecified) | in the range around 55 nM
CCC(C)(C)c1n[nH]c2c1CN(C(=O)Nc1cccc(Cl)c1)CC2 | in the range around 300 nM
Cc1cc(NC(=O)N2CCc3[nH]nc(C45CCCC4C5)c3C2)ccc1F (stereo unspecified) | in the range around 55 nM
N#Cc1cc(NC(=O)N2CCc3[nH]nc(C45CCCC4C5)c3C2)ccc1F (stereo unspecified) | in the range around 55 nM
CC1Cc2[nH]nc(C3CCCC3)c2CN1C(=O)Nc1ccc(F)c(Br)c1 (stereo unspecified) | in the range around 55 nM
C=C(C)c1n[nH]c2c1CN(C(=O)Nc1ccnc(Cl)c1F)CC2 | in the range around 300 nM
O=C(Nc1cccc(Cl)c1)N1CCc2[nH]nc(C3=CCCC3)c2C1 | in the range around 55 nM
O=C(Nc1cccc(Cl)c1)N1CCc2[nH]nc(C34CCCC3C4)c2C1 (stereo unspecified) | in the range around 55 nM
O=C(Nc1ccnc(Br)c1F)N1CCc2[nH]nc(C34CCCC3C4)c2C1 (stereo unspecified) | in the range around 55 nM
O=C(Nc1cccc(Cl)c1)N1CCc2[nH]nc(C3=CC(F)CC3)c2C1 (stereo unspecified) | in the range around 55 nM
Cc1cccc(NC(=O)N2Cc3c(C4CCCC4)n[nH]c3CC2C)c1 (stereo unspecified) | in the range around 55 nM

Compound | EC50
CC1Cc2[nH]nc(C3CCCC3)c2CN1C(=O)Nc1ccc(F)c(Cl)c1 (stereo unspecified) | in the range around 55 nM
CC1(c2n[nH]c3c2CN(C(=O)Nc2cccc(Cl)c2)CC3)CCC1 | in the range around 55 nM
CCCc1n[nH]c2c1CN(C(=O)Nc1cccc(Cl)c1)CC2 | in the range around 300 nM
O=C(Nc1cccc(Cl)c1)N1CCc2[nH]nc(N3CCCC3)c2C1 | in the range around 300 nM
O=C(Nc1cccc(Cl)c1)N1CCc2[nH]nc(C3=CCOCC3)c2C1 | in the range around 300 nM
C=C(C)c1n[nH]c2c1CN(C(=O)Nc1cccc(Br)c1F)CC2 | in the range around 55 nM
CC(C)(O)c1n[nH]c2c1CN(C(=O)Nc1cccc(Cl)c1)CC2 | > 10000 nM
CC1Cc2[nH]nc(C3CCCC3)c2CN1C(=O)Nc1cccc(Br)c1 (stereo unspecified) | in the range around 55 nM
O=C(Nc1cccc(Cl)c1)N1CCc2[nH]nc(C3CCC3)c2C1 | in the range around 55 nM
O=C(Nc1cccc(Cl)c1)N1CCc2[nH]nc(C3(C(F)(F)F)CC3)c2C1 | in the range around 300 nM
Cc1cccc(NC(=O)N2Cc3c(C4CCC4)n[nH]c3CC2C)c1 (stereo unspecified) | in the range around 55 nM
O=C(Nc1cccc(Cl)c1)N1CCc2[nH]nc(C3CC3)c2C1 | in the range around 300 nM
CC1Cc2[nH]nc(C3CCCC3)c2CN1C(=O)Nc1ccnc(Br)c1F (stereo unspecified) | in the range around 55 nM
Cc1cccc(NC(=O)N2Cc3c(C4CCCO4)n[nH]c3CC2C)c1 (stereo unspecified) | in the range around 300 nM
CC1Cc2[nH]nc(C3CCC3)c2CN1C(=O)Nc1ccnc(Br)c1F (stereo unspecified) | in the range around 300 nM
O=C(Nc1cccc(Br)c1F)N1CCc2[nH]nc(C34CCCC3C4)c2C1 (stereo unspecified) | in the range around 55 nM
CC1Cc2[nH]nc(C3CCC3)c2CN1C(=O)Nc1ccc(F)c(C#N)c1 (stereo unspecified) | in the range around 55 nM
O=C(Nc1cccc(Cl)c1)N1CCc2[nH]nc(C3CCOCC3)c2C1 | in the range around 300 nM
CCCC(F)(F)c1n[nH]c2c1CN(C(=O)Nc1cccc(Cl)c1)CC2 | in the range around 55 nM
O=C(Nc1cccc(Cl)c1)N1CCc2[nH]nc(C3CC=CC3)c2C1 | in the range around 55 nM
Cc1cccc(NC(=O)N2CCc3[nH]nc(C45CCCC4C5)c3C2)c1 (stereo unspecified) | in the range around 55 nM
